Data set [1] deals with T1, purified rabbit 20S proteasome (Oryctolagus cuniculus, UniProt G1T4Q9).
T1 sequence (G1T4Q9 60-263): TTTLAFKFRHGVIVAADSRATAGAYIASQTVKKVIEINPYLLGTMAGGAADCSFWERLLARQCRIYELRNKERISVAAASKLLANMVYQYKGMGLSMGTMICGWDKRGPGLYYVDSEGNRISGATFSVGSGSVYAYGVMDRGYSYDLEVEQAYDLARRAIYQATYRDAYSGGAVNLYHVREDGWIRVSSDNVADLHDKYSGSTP
The data set is described as follows: Inhibition of chymotrypsin-like activity of purified 20S proteasome. Format: biochemical. Particulars: for proteasomal inhibition (in words): purified 20S proteasome, concentration not stated; for inhibition of proteasomal chymotryptic activity (in words): even at a concentration of 50 μM. The method, then:
Purified 20S proteasome was incubated with compound 5, 7, 16, or 21 (A) or MDA-MB-231 cell extract (5.7 μg) was incubated with compound 6, 8, 17, or 22 (B) at indicated concentrations for 2 hours, followed by measuring the proteasomal chymotrypsin-like activity. EGCG was used as a comparative standard.
Purified rabbit 20S proteasome and fluorogenic substrate Suc-LLVY-AMC for the proteasomal chymotrypsin like (CT-like) activity were obtained from Calbiochem Inc. (San Diego, Calif.). Fetal bovine serum (FBS) was from Tissue Culture Biologicals (Tulare, Calif.). Penicillin and streptomycin were purchased from Invitrogen Co. (Carlsbad, Calif.). RPMI 1640 medium was purchased from Invitrogen Co. (Carlsbad, Calif.). MTT (3-4,5-dimethylthiazol-2-yl-2.5-diphenyl-tetrazolium bromide) was purchased from Sigma-Aldrich.
A purified rabbit 20S proteasome (35 ng) was incubated with 20 μM of substrate Suc-LLVY-AMC in 100 μl assay buffer (20 mM Tris-HCl, pH 7.5), in the presence of EGCG or EGCG analogs at different concentrations or the solvent for 2 h at 37° C., followed by measurement of hydrolysis of the fluorogenic substrates using a Wallac Victor3™ multi-label counter with 355-nm excitation and 460-nm emission wavelengths.

Data set [2] concerns Human breast cancer MDA-MB-231 cells. In words: MTT cell proliferation assay in MDA-MB-231 cells. Particulars: 24 h; for inhibition at 50 µM: Homo sapiens, MDA-MB-231. It is filed as cell-based. How it is done: Human breast cancer MDA-MB-231 cells were treated with 25 or 50 μM EGCG analogs for 24 hours, followed by MTT assay. Pro-EGCG was used as a comparison.
Human breast cancer MDA-MB-231 cells with high COMT activity were treated with 50 μM EGCG analogs for 24 hours in the absence or presence of 10 μM DNC, followed by MTT assay. Pro-EGCG was used as a comparison.
(§1) (A) EGCG analogs 23 and 30 inhibited breast cancer cell proliferation. MDA-MB-231 cells were treated with indicated concentrations of 23, 30 or metformin for 24 h, followed by a MTT assay. *, P<0.1; **, P<0.01. Columns, mean of three experiments; bars, SD. (B) EGCG analogs 23 and 30 activated AMPK at a dose-dependent manner, measured by elevated level of phosphor-AMPKα and its downstream proteins of phosphor-Raptor. […] MDA-MB-231 cells were treated with indicated concentrations of 23 or 30 for 3 h, followed by Western blot analysis with the indicated antibodies. The numbers underneath the Western results of p-AMPKα indicated normalized phosphor-AMPKα/β-actin ratios. […]
(§2) Cells were grown in a 96-well plate. Triplicate wells of cells were treated with indicated concentrations of EGCG or EGCG analogs for 24 h. After aspiration of medium, MTT (1 mg/ml) was then added to the cell cultures, followed by incubation for 3 h at 37° C. After cells were crystallized, MTT was removed and DMSO was added to dissolve the metabolized MTT product. The absorbance was then measured on a Wallac Victor3 1420 Multi-label counter at 540 nm.

Data set [3] has as its system AMPK signaling. In words: AMPK activation, Western blot, MDA-MB-231 cells. Format: cell-based, human. The following applies: 20 μM, 3 h; metformin 10 mM as comparison. How it is done: In FIG. 9A, human breast cancer MDA-MB-231 cells were treated with 20 μM of EGCG, Pro-EGCG and EGCG analogs (compounds 5, 7, 23, 30 and 31), or 10 mM of metformin for 3 hrs. Cell lysates were analyzed by Western blot using antibodies of anti-AMPK, p-AMPK, PARP, p-EGFR, EGFR or β-actin. In FIG. 9B, human breast cancer MDA-MB-231 cells were treated with 20 μM of EGCG analogs 23 and 30, 10 nM of docetaxel alone, or combined treatment with compounds 23 and 30 plus docetaxel for 24 hrs. Cell lysates were analyzed by Western blot using antibodies of anti-AMPK, p-AMPK, PARP, p-EGFR, EGFR or β-actin. In FIG. 9C, cells were incubated in medium (0.1% BSA without FBS) containing 20 μM of 23, 30, 2.5 μM of Erlotinib (Eb) alone or the combinations as indicated for 24 hrs. Cell lyses were analyzed by Western blot using antibodies of anti-AMPK, p-AMPK, PARP, p-EGFR, EGFR or β-actin.
as §1
A whole cell extract was prepared from the treated cells as described by Landis-Piwowar et al. Cancer Res. (2007) 67, 4303, Chen et al. Cancer Res. (2007) 67, 1636, and Chen et al. Biochem. Pharm. (2005) 69, 1421. Cell extracts (30 μg) were separated by an SDS-PAGE gel and transferred to nitrocellulose membranes. The membrances were blotted by specific antibodies including anti-AMPK, p-AMPK, EGFR, p-EGFR (Cell Signaling Tech., Danvers, Mass.), PARP (Enzo Life Sciences, Plymouth Meeting, Pa.), actin (Santa Cruz Biotechnology, Santa Cruz, Calif.). The membranes were visualized by enhanced chemiluminescence, as described previously by Landis-Piwowar et al. Cancer Res. (2007) 67, 4303, Chen et al. Cancer Res. (2007) 67, 1636, and Chen et al. Biochem. Pharm. (2005) 69, 1421.
The Western blot analysis was performed as follows: A whole cell extract was prepared from the treated cells as described previously (Landis-Piwowar et al., Cancer research, 2007, 67: 4303-4310; Chen et al., Cancer research, 2007, 67: 1636-1644; Chen et al., Biochemical pharmacology, 2005, 69: 1421-1432). The cell extracts (30 μg) were then separated by an SDS-PAGE gel and transferred to nitrocellulose membranes. The membrances were blotted by specific antibodies including anti-AMPK, p-AMPK, EGFR, p-EGFR (Cell Signaling Tech. Danvers, Mass.), PARP (Enzo Life Sciences, Plymouth Meeting, Pa.), actin (Santa Cruz Biotechnology, Santa Cruz, Calif.). The membranes were visualized by enhanced chemiluminescence, as described previously (Landis-Piwowar et al., Cancer research, 2007, 67: 4303-4310; Chen et al., Cancer research, 2007, 67: 1636-1644; Chen et al., Biochemical pharmacology, 2005, 69: 1421-1432).
In FIG. 9A, human breast cancer MDA-MB-231 cells were treated with 20 μM of EGCG, Pro-EGCG and other EGCG analogs (compounds 5, 7, 23, 30 and 31), or 10 mM of metformin for 3 hrs. Cell lysates were analyzed by Western blot using antibodies of anti-AMPK, p-AMPK, PARP, p-EGFR, EGFR or β-actin. In FIG. 9B, human breast cancer MDA-MB-231 cells were treated with 20 μM of EGCG analogs 23 and 30, 10 nM of docetaxel alone, or combined treatment with compounds 23 and 30 plus docetaxel for 24 hrs.

For data set [4], the target named is T2, proteasomal chymotrypsin-like activity of MDA-MB-231 cell extracts (Homo sapiens, UniProt P28074).
T2 construct: endogenous in cells; host or cells: MDA-MB-231 human breast cancer cells (ATCC), cell extract
T2 sequence (P28074 60-263): T1 sequence (G1T4Q9 60-263) with D197E
The data set is described as follows: Proteasomal chymotrypsin-like activity in MDA-MB-231 cell lysate with high COMT activity. It is filed as biochemical. The following applies: concentrations ranging between 1-10 μM, 2 h. How it is done:
(A) MDA-MB-231 cell extracts (5.7 μg) were incubated with different concentrations of compound 5 or 7 or EGCG for 2 hours, followed by performance of proteasomal chymotrypsin-like activity assay. EGCG was used as a control. (B) MDA-MB-231 cell extracts (5.7 μg) were pre-treated with 10 μM DNC for 20 minutes, followed by co-incubation with compound 5, or 7 or EGCG for 2 h. The proteasomal chymotrypsin-like activity was measured.
Human breast cancer MDA-MB-231 cell lysate that contains high COMT activity were treated with varying concentrations of compound 5 or 7. […] Thus, consistent with previous reports EGCG is also susceptible to methylation by COMT (H., Lu, X. Meng, C. S. Yang, Drug Metabolism and Disposition; 31; 572, 2003).

Data set [5] has as its system human multiple myeloma ARP cells. In words: MTT assay in multiple myeloma ARP cells, alone or with Velcade. It is filed as cell-based. Particulars: 48 h; for effect on cell proliferation when combined with Velcade: 20 μM plus varying doses of Velcade. How it is done: The cells were treated with Velcade™ alone or with 20 μM of compounds 5, 7 and 23 or in combination with varying doses of Velcade™ for 48 hrs, followed by a MTT assay.
Human multiple myeloma cells (Arp and Opm1) cells, kindly provided by Dr. Ramesh Batchu (Wayne State University), were grown in RPMI-1640 medium supplemented with 10% FBS, 100 units/ml of penicillin, and 100 μg/ml of streptomycin. Cells were maintained at 37° C. in 5% CO2 (Mujtaba T, et al., Int J Mol Med. (2012) 29(1):102-6).
as §2

Data set [6] concerns MDA-MB-231 cells. In words: Mammosphere formation assay. Format: cell-based. The following applies: Homo sapiens, MDA-MB-231, 168 h, 7 days. The method, then: MDA-MB-231 cells were seeded in low attached 6-well plates (1000 cells/well) and treated with indicated concentrations of 23 and 30 for 7 days, followed by calculating numbers of mammosphere (A) and taking photos of mammosphere morphology (B). Metformin and EGCG were served as control. *, P<0.1; **, P<0.01. Columns, mean of three experiments; bars, SD.
Mammosphere formation assay was performed to assess the capacity of cancer stem cell self-renewal. Single cell suspensions of MDA-MB-231 cells were thoroughly suspended and plated on ultra low adherent wells of 6-well plates (Corning, Lowell, Mass.) at 1000 cells/well in 1.5 ml of sphere formation medium (1:1 DMEM/F12 medium supplemented with 50 units/ml penicillin, […] streptomycin, B-27 and N-2). One milliliter of sphere formation medium was added every 3-4 days. After 7 days of incubation with different concentrations of EGCG analogs 23, 30 or metformin, the formed spheres were collected by centrifugation at 300 g for 5 min and counted with an inverted phase-contrast Zeiss Axiovert 25 microscope.

Positions count from the first letter of the chain named. Like-named read-outs stand apart in the source and are kept apart here.

Turning to `CC(=O)Oc1cc(OC(C)=O)c2c(c1)O[C@H](c1cc(OC(C)=O)c(OC(C)=O)c(OC(C)=O)c1)[C@H](OC(=O)c1cc(OC(C)=O)c(OC(C)=O)c(OC(C)=O)c1)C2` [Compound 4, (−)-Epigallocatechin gallate octa-acetate], the “proteasomal inhibition (in words)” value in data set [1] is reported as “none”. Moreover, in data set [2] (25 to 50 μM, MTT), the “inhibition in MDA-MB-231 cells growth” value was 0 to 32%. Besides, the inhibition at 50 µM turned out to be 42% in data set [2] (absence of DNC, read-out: inhibition of cell proliferation, compound alone) and 89% in data set [2] (plus 10 μM DNC (COMT inhibitor), read-out: inhibition of cell proliferation in the presence of DNC). In data set [3], the “AMPK activation (p-AMPK)” value is listed as “can activate AMPK signaling”.
Take `O=C(O[C@H]1Cc2ccccc2C[C@H]1OC(=O)c1cc(O)c(O)c(O)c1)c1cc(O)c(O)c(O)c1` [Compound 5]: in data set [4], the “inhibition of proteasomal activity” value was 10-16%. In data set [5], the “effect on cell proliferation when combined with Velcade” value is given as “antagonized the inhibitory effect”.
`O=C(O[C@H]1Cc2ccccc2C[C@H]1OC(=O)c1cc(O)cc(O)c1)c1cc(O)cc(O)c1` [Compound 7]: the “inhibition of proteasomal activity” value in data set [4] is 18-51%. Moreover, in data set [5], the “effect on cell proliferation when combined with Velcade” value is recorded as “synergistic inhibitory effect”. In addition, the inhibition at 20 µM in data set [5] (Homo sapiens, ARP cells, 20 μM, read-out: inhibition of cell proliferation) was about 60%.
As to `O=C(O[C@H]1Cc2ccccc2C[C@H]1O)c1cc(O)c(O)c(O)c1` [Compound 16], the “inhibition of proteasomal chymotryptic activity (in words)” value in data set [1] is “did not inhibit”.
Consider `CC(=O)Oc1cc(C(=O)O[C@H]2Cc3ccccc3C[C@H]2OC(C)=O)cc(OC(C)=O)c1OC(C)=O` [Compound 17], for which, in data set [1], the “proteasomal inhibition (in words)” value is listed as “none”.
For `O=C(O[C@H]1Cc2ccccc2C[C@H]1O)c1cc(O)cc(O)c1` [Compound 21], in data set [1], the “inhibition of proteasomal chymotryptic activity (in words)” value is listed as “not active”.
Consider `CC(=O)Oc1cc(OC(C)=O)cc(C(=O)O[C@H]2Cc3ccccc3C[C@H]2OC(C)=O)c1` [Compound 22], for which the “proteasomal inhibition (in words)” value in data set [1] is “none”.
In the case of `O=C(O[C@H]1Cc2ccccc2C[C@H]1OC(=O)c1ccc(F)c(F)c1)c1ccc(F)c(F)c1` [Compound 33], the melting point fell in the range of 102 to 104 °C.
The same measure, in the same setting: next, `O=C(O[C@H]1Cc2ccccc2C[C@H]1OC(=O)c1cc(F)cc(F)c1)c1cc(F)cc(F)c1` [Compound 34]: 136 to 138 °C.
`CN(C)C(=N)N=C(N)N` [metformin, reference compound]: in data set [6] (5 mM), the inhibition at 5000 µM is 41.4%. The inhibition at 10000 µM in data set [6] (10 mM) was 67.6%.
